Results on two molecules are retold here after publication PMC3612716 (British Journal of Clinical Pharmacology, 2012).

Data set [1] concerns healthy subjects. The experiment in a line: Safety and tolerability. The format is in vivo, human. The note with it: ITT population, by treatment.
The test system of data set [2] is healthy subjects. Kind of data set: Thorough QT study: ECG. To be noted: positive control.
Data set [3] concerns patients with type 2 diabetes / healthy subjects. The note with it: previous findings; cited from earlier work.

Consider `COc1c(N2C[C@@H]3CCCN[C@@H]3C2)c(F)cc2c(=O)c(C(=O)O)cn(C3CC3)c12` [moxifloxacin], for which the “subjects experiencing adverse events” value in data set [1] is 23%. The “LS mean ΔΔQTcP (two-sided 90% CI)” value is recorded as 5.47 (2.82, 8.12) ms in data set [2] (1 h following single 400 mg oral dose); 10.56 (8.46, 12.67) ms in data set [2] (2 h following single 400 mg oral dose); 10.93 (8.71, 13.13) in data set [2] (3 h following single 400 mg oral dose).

Consider liraglutide, for which the “changes in QTc at therapeutic concentrations” value in data set [3] was “no clinically meaningful changes in QTc”.
